Read-outs that look alike come from different tables or passages of the source.
How the values were obtained:
[1] = n-octanol/water; ESI ref 13; cited from earlier work
MDA-MB-231 [2] = experiment: MTT cytotoxicity assay, MDA-MB-231 cells; assay type: cell-based, human; conditions: MTT
Procedure: (§1) The cytotoxicity of 1–11CA was assessed against human breast cancer MCF-7 and MDA-MB-231 cells, and non-tumorigenic adherent mouse fibroblast connective tissue L929 cells using the MTT assay after 24 and 72 h (Tables S5 ^† and Table 1, respectively).
(§2) Then, necessary dilutions were made using the supplement DMEM, to prepare the range of tested concentrations. Since DMSO was used to solubilize the compounds, a supplemented DMEM + DMSO (at the same percentage as in the sequential dilutions) was considered as a control in the 3-[4,5-dimetylthiazole-2-yl]-2,5-diphenyltetrazolium bromide (MTT) assay.
(§3) L929, MCF-7, and MDA-MB-231 cell lines were cultured in DMEM supplemented with 10% (v/v) FBS and 1% (v/v) of penicillin–streptomycin. The cells were incubated in a humidified chamber at 37 °C under saturated air with a 5% CO2 atmosphere. Cells were passed at 80%–90% of confluency with 0.25% (w/v) trypsin and the cell culture media was changed every 2–3 days.
(§4) The compounds were tested on two breast cancer cell lines (MCF-7 and MDA-MB-231) and L929 fibroblasts, used as a reference for the safety evaluation according to ISO 10993-1:2009 “Biological evaluation of medical devices”. Cells were seeded on sterile 96-well plates at 50 000 cells per well (L929) and 20 000 cells per well (MCF-7 and MDA-MB-231) in supplemented DMEM medium (100 μL) for 24 h. The culture medium was removed and new media containing different concentrations of the compounds (0–1000 μM) was added to the wells (100 μL). Control cells were incubated under the same conditions in the absence of a compound. Cells were incubated for 24 and 72 h under the same conditions described above. Then, the medium was removed, and the cells were incubated with 3-(4,5-dimethylthiazol-2-yl)-2,5-diphenyltetrazolium bromide (MTT; 0.5 mg mL^−1) for 3 h. After this time, the medium was removed, and formazan crystals were solubilized with DMSO (100 μL per well). The absorbance in each well was read on a SynergyTM HT Multimode microplate reader (BioTek Instruments; Winooski, VT, USA) at 570 and 630 nm (for background correction), and the cell viability was calculated according to the following equation (eqn (1)):1 [drawing 3] where OD570(sample) and OD630(sample) are the optical densities of the solutions containing the compounds and OD570(control) and OD630(control) are controls without compound.
(§5) Each apoptosis value determination represents the mean ± standard deviation of 2 independent assays. The IC50 values were obtained using GraphPad Prism software and ANOVA (analysis of variance) was performed to determine the statistical difference between the IC50 values of different cell lines.

MCF-7 [3] = experiment: MTT cytotoxicity assay, MCF-7 cells; assay type: cell-based, human; conditions: MTT
Procedure: as §1, §2, §3, §4, §5

L929 = experiment: MTT cytotoxicity assay, L929 fibroblasts (and selectivity index); assay type: cell-based, mouse; conditions: for SI (selectivity index): IC50 L929 divided by average IC50 of the breast cancer cell lines; for IC50: MTT
Procedure: as §1, §2, §3, §4, §5

MDA-MB-231 [4] = conditions: read-out: cytotoxicity (IC50) MDA-MB-231, cited from earlier work
MCF-7 [5] = conditions: read-out: cytotoxicity (IC50) MCF-7, cited from earlier work
MDA-MB-231 [6] = experiment: FITC Annexin V / 7-AAD apoptosis assay, MDA-MB-231; assay type: cell-based, human; conditions: 24 h at 24 h IC50 dose
Procedure: Apoptosis in MCF-7 and MDA-MB-231 cells was determined using FITC Annexin V with a 7-aminoactinomycin D (7-AAD) staining kit (BioLegend®, California, US) according to the manufacturer's instructions. […] Following incubation, the cells were washed with PBS twice and detached using 0.25% trypsin. After obtaining cell pellets by centrifugation (300g for 5 min), the cells were resuspended in 100 μL of PBS, followed by the addition of 10 μL of FITC Annexin V and 7-AAD, and then incubated for 15 min at room temperature while protected from light. After the incubation period, 200 μL of binding buffer was added to the cell suspension and the samples were analyzed immediately using a BD Accuri C6 flow cytometer with a minimum of 10 000 events. The assays were performed in quadruplicate and the results were analyzed with Accuri C6 analysis software.
as §5, with “Each cell viability result represents the mean ± standard deviation (SD) for n = 4 replicates in each of 3 independent assays, resulting in 12 independent values. Each” for “Each”

[7] = Stability in solution (ESI-MS, NMR); conditions: 100% d6-DMSO, 1 mM, 72 h
Procedure: The stability of 11CA under pseudo-physiological conditions was assessed using ESI-MS and ^1H and ^31P NMR spectroscopy.
Stability studies were performed on 11CA over 72 h at 37 °C.
The stability of 11Cl was also monitored over
72 h via 1H and 31P NMR spectroscopy. The complex was fully dissolved in d6-DMSO,
diluted with D2O to reach 10% d6-DMSO in D2O (1 mM final concentration) and, finally,
the pD was adjusted to 7.2 ± 0.1 (neutral conditions). Furthermore, the stability of 11Cl
and 11BPh4 was also assessed in 100% d6-DMSO (1 mM final concentration) as a highly

[8] = Solubility in water (ICP-MS); conditions: 25 °C, limit of detection = 5 ppt
Procedure: sonication, the mixtures were stirred at 25 °C for 1 h. The saturated solutions were filtered
to remove any insoluble solids, dissolved in 0.5 mL of MilliQ water, and analyzed using
ICP-MS. Samples were submitted to acidic digestion with 2 mL of concentrated HNO3
min to heat to 100°C and keep at 100°C for 60 min. After the digestion, the sample
volumes were precisely adjusted to 5 mL with MilliQ water. Samples were further diluted
30 times with 2% HNO3 solution and their Ru content was analyzed by ICP-MS using
standard mode on NexIon 350 D ICP-MS instrument (PerkinElmer). Yttrium was added
as an internal standard at a concentration of 2 ppb to all the solution and Ru quantitation
was performed using an external calibration curve with standards in the 0.05-50 ppb

[9] = n-octanol/water partition coefficient (shake-flask, ICP-MS)
Procedure: The saturated solutions were filtered
(DigiPREP Jr. 15ml, 40 Pos, SCP Science). The digestion program was the following: 15
After the digestion, the sample
Samples were further diluted
range. All measurements were performed in triplicates.
lipophilicity of a compound. This assay was performed following the Shake-flask method
organic and aqueous phase. Aliquots of each phase were taken and analyzed separately
range. The partition coefficient was calculated as P!"=
respectively. All measurements were performed in triplicates.

[10] = Molar conductivity in acetonitrile; assay type: physicochemical; conditions: 1 mM in acetonitrile, 25 °C
Procedure: The molar conductivity (ΛM, reported as S·cm2·mol–1) of solutions of 11CA in acetonitrile (1 mM) were measured in a Radiometer Copenhagen CDM92 equipped with a conductivity cell CDC641T glass platinum electrode at room temperature (25 °C). The conductivity of the pure solvent was used as standard controls.
Table S3. Solubility in water at 25 °C, n-octanol/water partition coefficient and molar conductivity of the 11CA. * below limit of detection = 5 ppt.

ctDNA = experiment: Circular dichroism / induced circular dichroism with calf thymus DNA; conditions: DNA
Procedure: Calf thymus (ct) DNA (Merck®) was used to perform the circular dichroism assay to detect conformational changes in the ctDNA induced by the compounds. CD spectral data was collected on a Chirascan™ V100 (Applied Photophysics) spectropolarimeter equipped with a large area Avalanche photodiodes detector and computer-controlled thermoelectrical cell holder using a 1 cm path length quartz cuvette. CD spectra of ctDNA in the absence and presence of different concentrations of 11Cl were recorded at wavelengths ranging from 320 to 190 nm under constant nitrogen flush at 25 °C. For each CD spectrum, the number of scans was set to 5, and spectral data were collected at 0.1 ms intervals. Additionally, methyl green (MG) and 4′,6-diamidino-2-phenylindole (DAPI), and propidium iodide (PI) were analyzed as minor and major groove binders and as an intercalator, respectively, to help identify the binding mode of 11Cl to DNA. Samples were prepared in 10 mM Tris-HCl buffer (pH 7.6) with 1 mM EDTA. The concentration of ctDNA was fixed at 100 μM (concerning base pairs) and the ctDNA to 11Cl ratio was varied between 0 and 1. The samples were incubated for 24 h at 37 °C and then analyzed in the CD spectropolarimeter.

ct-DNA = conditions: cited from earlier work
[11] = system: 14-mer ssDNA (DNA, single strand) ATACATGGTACATA; experiment: ESI tandem mass spectrometry; conditions: MilliQ water pH 7, 37 °C, 24 h; compound:DNA 3:1 mixed; adduct seen as [Ru(toluene)(PPh3)]2+; non-covalent
[12] = system: 6-mer dsDNA (DNA, duplex) AGGCAG/CTGCCT; experiment: ESI tandem mass spectrometry; conditions: MilliQ water pH 7, 37 °C, 3:1 mixed; 24 h or 72 h (ESI); non-covalent
[13] = 24 h exposure, read-out: IC50 (µM) (average ± standard deviation) 24 h MDA-MB-231
[14] = 72 h exposure, read-out: IC50 (μM) (average ± standard deviation) 72 h MDA-MB-231
[15] = 24 h exposure, read-out: IC50 (µM) (average ± standard deviation) 24 h MCF-7
[16] = 72 h exposure, read-out: IC50 (μM) (average ± standard deviation) 72 h MCF-7
[17] = 24 h exposure, read-out: IC50 (µM) (average ± standard deviation) 24 h L929
[18] = 72 h exposure, read-out: IC50 (μM) (average ± standard deviation) 72 h L929

Row | SMILES | IC50 (MDA-MB-231 [2]; [13]) [µM] | IC50 (MDA-MB-231 [2]; [14]) [µM] | IC50 (MCF-7 [3]; [15]) [µM] | IC50 (MCF-7 [3]; [16]) [µM] | SI (selectivity index) (L929; 24 h) | IC50 (L929; [17]) [µM] | SI (selectivity index) (L929; 72 h) | IC50 (L929; [18]) [µM] | average apoptosis percentage, MDA-MB-231 cells (MDA-MB-231 [6]) [%] | Solubility (μM) [8] | Solubility (μg/mL) [8] | other results
1 | Cc1ccc(C(C)C)cc1.[Cl][Ru]([Cl])[PH]12CN3CN(CN(C3)C1)C2 [Compound 5] | 497 ± 12 | 71 ± 4 | 526 ± 19 | 57 ± 5 | 1.2 | 612 ± 30 | 1.3 | 84 ± 4 |  |  |  | LogPow [1]: > −1.8
2 | N.N.[Cl][Pt][Cl] [cisplatin] |  |  |  |  |  |  |  |  |  |  |  | IC50 (MDA-MB-231 [4]; literature value ref 42): 38.7 ± 0.03 µM; IC50 (MCF-7 [5]; literature value ref 41): 28 ± 6 µM
3 | Cc1ccccc1.[Cl][Ru]([Cl])[PH]12CN3CN(CN(C3)C1)C2 [Compound 4] | 384 ± 16 | 83 ± 4 | 474 ± 19 | 68 ± 7 | 1.7 | 723 ± 29 | 1.0 | 79 ± 4 |  |  |  | LogPow [1]: −1.5
4 | N.N.O=C([O-])C1(C(=O)[O-])CCC1.[Pt+2] [carboplatin] |  |  |  |  |  |  |  |  |  |  |  | IC50 (MDA-MB-231 [4]; literature value ref 44): 15.4 ± 3.3 µM; IC50 (MCF-7 [5]; literature value ref 43): 27.3 µM
5 | Cc1cccc[c]1[Ru+]([Cl])([PH](c1ccccc1)(c1ccccc1)c1ccccc1)[PH](c1ccccc1)(c1ccccc1)c1ccccc1.c1ccc([B-](c2ccccc2)(c2ccccc2)c2ccccc2)cc1 [Compound 11BPh4] | 100 ± 8 | 1.7 ± 0.3 | 51 ± 5 | 0.52 ± 0.06 | 0.8 | 59 ± 5 | 3.5 | 3.9 ± 0.3 | 33 | below LOD | below LOD | stability in DMSO (NMR) [7]: No changes were observed; LogPow [9]: > 3.5; Conductivity (molar conductivity) [10]: 71 S·cm2/mol
6 | Cc1cccc[c]1[Ru+]([Cl])([PH](c1ccccc1)(c1ccccc1)c1ccccc1)[PH](c1ccccc1)(c1ccccc1)c1ccccc1.O=S(=O)([O-])C(F)(F)F [Compound 11OTf] | 4 ± 2 | 1.4 ± 0.1 | 4 ± 1 | 0.6 ± 0.07 | 1.5 | 5.8 ± 0.7 | 1.8 | 1.8 ± 0.2 | 40 | 1.1 ± 0.1 µM | 1.0 ± 0.1 µg/mL | LogPow [9]: 1.75 ± 0.18; Conductivity (molar conductivity) [10]: 173 S·cm2/mol
7 | N=C(N)c1ccc(-c2cc3ccc(C(=N)N)cc3[nH]2)cc1 [DAPI] |  |  |  |  |  |  |  |  |  |  |  | CD band 268 nm, intensity change (ctDNA; 268 nm part of the 268−280 nm band): Hyperchromic; CD band 280 nm, intensity change (ctDNA; 280 nm part of the 268−280 nm band): Hypochromic; CD band 210 nm, intensity change (ctDNA; 24 h, 37 °C): Hypochromic; CD band 210 nm, wavelength shift (ctDNA; 24 h, 37 °C): Red; CD band 220 nm (hydrogen bonding), intensity change (ctDNA; 24 h, 37 °C): Hyperchromic; CD band 220 nm (hydrogen bonding), wavelength shift (ctDNA; 24 h, 37 °C): Blue shift; CD band 246 nm (helicity), intensity change (ctDNA; 24 h, 37 °C): Unchanged; CD band 246 nm (helicity), wavelength shift (ctDNA; 24 h, 37 °C): Unchanged; CD band 268−280 nm (base-pair stacking interactions), wavelength shift (ctDNA; 24 h, 37 °C): Unchanged; Kprobe, binding constant of the probe to DNA (ct-DNA; used in eqn (4) ref 92): 5e+06 M⁻¹
8 | Cc1ccccc1.[Cl-].[Ru+2].c1ccc(P(c2ccccc2)c2ccccc2)cc1.c1ccc(P(c2ccccc2)c2ccccc2)cc1 |  |  |  |  |  |  |  |  |  |  |  | binding [11]: yes; binding [12]: yes
9 | CN(C)c1ccc(C(=C2C=CC(=[N+](C)C)C=C2)c2ccc([N+](C)(C)C)cc2)cc1.[Cl-].[Cl-] [MG, methyl green] |  |  |  |  |  |  |  |  |  |  |  | CD band 210 nm, intensity change (ctDNA; 24 h, 37 °C): Hypochromic; CD band 210 nm, wavelength shift (ctDNA; 24 h, 37 °C): Blue; CD band 220 nm (hydrogen bonding), intensity change (ctDNA; 24 h, 37 °C): Hyperchromic; CD band 220 nm (hydrogen bonding), wavelength shift (ctDNA; 24 h, 37 °C): Blue shift; CD band 246 nm (helicity), intensity change (ctDNA; 24 h, 37 °C): Hypochromic; CD band 246 nm (helicity), wavelength shift (ctDNA; 24 h, 37 °C): Unchanged; CD band 268−280 nm (base-pair stacking interactions), intensity change (ctDNA; 24 h, 37 °C): Unchanged; CD band 268−280 nm (base-pair stacking interactions), wavelength shift (ctDNA; 24 h, 37 °C): Unchanged; Kprobe, binding constant of the probe to DNA (ct-DNA; used in eqn (4) ref 91): 900000 M⁻¹
10 | Cc1cccc[c]1[Ru+]([Cl])([PH]12CN3CN(CN(C3)C1)C2)[PH](c1ccccc1)(c1ccccc1)c1ccccc1.F[P-](F)(F)(F)(F)F (stereo not shown) [Compound 10] | 113 ± 14 | 2.8 ± 0.2 | 128 ± 30 | 3.1 ± 0.2 | 0.6 | 74 ± 5 | 10.5 | 31 ± 3 | 41 | 547 ± 117 µM | 475 ± 102 µg/mL | 
11 | Cc1cccc[c]1[Ru+]([Cl])([PH](c1ccccc1)(c1ccccc1)c1ccccc1)[PH](c1ccccc1)(c1ccccc1)c1ccccc1.[F][Sb-]([F])([F])([F])([F])[F] [Compound 11SbF6] | 21 ± 2 | 0.131 ± 0.009 | 11 ± 2 | 0.08 ± 0.01 | 0.4 | 7 ± 0.4 | 12.8 | 1.35 ± 0.09 | 95 | below LOD | below LOD | LogPow [9]: 2.01 ± 0.07; Conductivity (molar conductivity) [10]: 186 S·cm2/mol

Source: PMC10442743 (Dalton Transactions (Cambridge, England : 2003), 2023)
